Measured values: ChEMBL document CHEMBL4303097 (2020)
Where a name gives a salt, the structure may show the parent alone.

How the values were obtained:
[1] = tested on: SARS-CoV-2; assay: Antiviral efficacy against SARS-CoV-2 (strain BavPat1) in Vero E6 cells assessed by inhibition of viral RNA replication measured by RT-PCR after 2 days; format: functional, organism-based, Chlorocebus sabaeus; conditions: Severe acute respiratory syndrome coronavirus 2, Vero C1008, 48 h
[2] = Selectivity index for antiviral vs cytotoxic effect in Vero E6 cells (CC50/EC50); format: toxicity, cell-based, Vero C1008; conditions: monkey, read-out: Selectivity index
[3] = Cytotoxicity (CC50) determination in Vero E6 cells measured by fluorescence (OD590nm); format: toxicity, cell-based; conditions: chlorocebus sabaeus, Vero E6 cells (Vero C1008)
[4] = tested on: SARS-CoV-2; assay: Inhibition of cell viability relative to arbidol control (inhibition index > 1 indicates higher activity) measured by fluorescence (OD590nm) in Vero E6 cells infected with SARS-CoV-2 (strain BavPat1) at MOI 0.002 after 72hrs; format: functional; conditions: Chlorocebus sabaeus; Vero C1008

Row | Molecule | EC50 [1] [µM] | EC90 [1] [µM] | selectivity ratio [2] | CC50 [3] [µM] | Inhibition index [4]
1 | C[C@@H]1CCO[C@H]2Cn3cc(C(=O)NCc4ccc(F)cc4F)c(=O)c(O)c3C(=O)N12 [DOLUTEGRAVIR] | 22 | 42.8 | > 1.8 | > 40 | 
2 | Tyloxapol |  |  |  |  | 0.101
3 | COC(c1ccccc1)(c1ccccc1)C(Oc1nc(C)cc(C)n1)C(=O)O (configuration not stated) | > 40 |  |  |  | 
4 | Clc1ccc(Cn2c(CN3CCCC3)nc3ccccc32)cc1 | 23.9 | 38.2 | > 1.7 | > 40 | 
5 | COc1ccccc1OCC(O)CN1CCN(CC(=O)Nc2c(C)cccc2C)CC1 (configuration not stated) [RANOLAZINE] | > 40 |  |  |  | 
6 | Gramicidin |  |  |  |  | -0.249
7 | COc1ncnc(NS(=O)(=O)c2ccc(N)cc2)c1OC [SULFADOXINE] | 35.4 | 45.1 | > 1.13 | > 40 | 
8 | C=CCOc1ccccc1OCC(O)CNC(C)C (configuration not stated) [OXPRENOLOL HYDROCHLORIDE] | 20.2 | > 40 | > 2 | > 40 | 
9 | CC(C)(C)NC[C@H](O)c1ccc(O)c(CO)c1 [LEVALBUTEROL HYDROCHLORIDE] | > 40 |  |  |  | 
10 | CCCCC[C@H](O)/C=C/[C@H]1[C@H](O)CC(=O)[C@@H]1CCCCCCC(=O)O [ALPROSTADIL] | 5.39 | 62.4 | > 7.4 | > 40 | 
11 | CYANOCOBALAMIN |  |  |  |  | 0.0637
12 | CCN(CCO)CCCC(C)Nc1ccnc2cc(Cl)ccc12 (configuration not stated) [HYDROXYCHLOROQUINE SULFATE] | 4.17 |  | > 10 | > 40 | 
13 | OCCN1CCN(CCCN2c3ccccc3C=Cc3ccccc32)CC1 [OPIPRAMOL HYDROCHLORIDE] | 5.05 |  | > 7.9 | > 40 | 
14 | COc1ccc2[nH]c([S+]([O-])Cc3ncc(C)c(OC)c3C)nc2c1 (configuration not stated) [OMEPRAZOLE] | 17.1 |  |  | > 40 | 
15 | CC[C@H]1OC(=O)[C@H](C)[C@@H](O[C@H]2C[C@@](C)(OC)[C@@H](O)[C@H](C)O2)[C@H](C)[C@@H](O[C@@H]2O[C@H](C)C[C@H](N(C)C)[C@H]2O)[C@](C)(O)C[C@@H](C)CN(C)[C@H](C)[C@@H](O)[C@]1(C)O [AZITHROMYCIN] | 2.12 |  | > 19 | > 40 | 
16 | NEOMYCIN SULFATE |  |  |  |  | 0.0953
17 | CCOC(=O)c1c(CSc2ccccc2)n(C)c2cc(Br)c(O)c(CN(C)C)c12 [UMIFENOVIR] | 10.7 |  | > 3.7 | > 40 | 
18 | CC(C)CN(C[C@@H](O)[C@H](Cc1ccccc1)NC(=O)O[C@H]1CO[C@H]2OCC[C@H]21)S(=O)(=O)c1ccc(N)cc1 | > 40 |  |  |  | 
19 | CCCc1nc(C(C)(C)O)c(C(=O)OCc2oc(=O)oc2C)n1Cc1ccc(-c2ccccc2-c2nnn[nH]2)cc1 [OLMESARTAN MEDOXOMIL] | > 40 |  |  |  | 
20 | C=C[C@H]1CN2CC[C@H]1C[C@@H]2[C@@H](O)c1ccnc2ccc(OC)cc12 | 5.11 | > 40 | > 7.8 | > 40 | 
